Test results reported in US10975094B2, “Heterocyclic compounds as RSV inhibitors” (Enanta Pharmaceuticals, Inc., priority 2018, dated 2021).

What follows are compounds tested on Human RSV-A (“Long” strain) (assay: RSV in vitro cytoprotection assay in HEp-2 cells (ATPlite read-out)). Settings: human respiratory syncytial virus, 96 h; HEp-2 cells, genotype A “Long” strain RSV, 4-day incubation, ATPlite; read-out: Human RSV-A (“Long” strain) EC50.
Type: cell-based
Description: RSV is a single stranded negative sense RNA virus that causes respiratory tract infections which can be dangerous to infants, the elderly, and immunosuppressed individuals. Currently there is no vaccine, and therapeutic options are both costly and of limited effectiveness. These approved treatments are Ribavirin, and Palivizumab/Synagis (a monoclonal antibody). RSV has two genotypes, A and B, which differ primarily in the structure of the virus' surface “G” attachment protein. Our current primary screen focuses on RSV-A and uses an in vitro cytoprotection assay where compounds are added in 2-fold dilutions to cells which are then subjected to fully replicative viral particles. Cell viability is measured several days later along with separate measurements of compound cytotoxicity. This report focuses on the results of our most recent screening of compounds.
HEp-2 cells, (originally derived from tumors grown in irradiated-cortisonised weanling rats that had been injected with epidermoid carcinoma tissue from a person's larynx, but later found to be indistinguishable from HeLa cells by PCR DNA analysis), were used for the culturing of genotype A, “Long” strain RSV. Flasks were inoculated with RSV and viral stocks were collected once cytopathic effect (CPE) was greater than 90%. Viral stocks in 25% sucrose media were snap frozen using liquid nitrogen to increase viral stability. Viral stock titers were quantified by tissue culture infectious dose 50% (TCID50) using 8,000 cells per well and 3-fold viral dilutions across a 96-well plate, cultured for 4 days.
Following extensive parameter testing, the final assay is run as follows: HEp-2 cells are seeded into the inner 60 wells of a 96-well plate at 8,000 cells per well in a volume of 50 μL using Growth Media (DMEM without phenol red, 1% L-Glut, 1% Penn/Strep, 1% nonessential amino acids, 10% FBS). 2-Fold serial dilutions of control and test compounds are added to the wells in duplicate in a total volume of 25 μL. Viral stock is then added to the wells in a volume of 25 μL, bringing the total volume of each well to 100 μL. Each 96-well plate has a control column of 6 wells with cells and virus but no compound (negative control, max CPE), a column with cells but no compound or virus (positive control, minimum CPE), and a column with no cells or virus or compound (background plate/reagent control). The control wells with cells but no virus are given an additional 25 μL of growth media containing an equal quantity of sucrose as those wells receiving the viral stock in order to keep consistent in media and volume conditions. The outer wells of the plate are filled with 125 μL of growth media to act as a thermal and evaporative moat around the test wells. Following a 4-day incubation period, the plates are read using ATPlite (50 μL added per well), which quantifies the amount of ATP (a measure of cell health) present in each well. Assay plates are read using the Envision luminometer. In parallel, cytotoxicity is examined on an additional 96-well plate treated in an identical manner, but substituting the 25 μL of viral stock for 25 μL of growth media. […] EC50 ranges are as follows: A<0.1 μM; B 0.1-0.5 μM; C>0.5 μM
`Cc1cnc(N2CC3(CCOCC3)C2)c(C(=O)Nc2ccc(C(=O)N3CCc4cc(C(=O)c5ccccc5C)sc4-c4ccccc43)cc2)c1` [Example 38] gave an EC50 of over 500 nM. Compound `Cc1cnc(N2CC3(CCOCC3)C2)c(C(=O)Nc2ccc(C(=O)N3CCc4cc(C(=O)c5nc6ccccc6n5C)oc4-c4ccccc43)cc2)c1` [Example 18] has an EC50 of under 100 nM. `Cc1cnc(N2CC3(CCOCC3)C2)c(C(=O)Nc2ccc(C(=O)N3CCc4cc(C(=O)c5nc(C#N)c[nH]5)sc4-c4ccc(F)cc43)cc2)c1` [Example 32] was tested, and the EC50 was under 100 nM. `Cc1cnc(N2CC3(CCOCC3)C2)c(C(=O)Nc2ccc(C(=O)N3CCc4cc(C(=O)c5nc6ccccc6n5C)sc4-c4ccc(F)cc43)cc2)c1` [Example 2] was tested, and the EC50 was 100 to 500 nM. `Cc1cnc(N2CC3(CCOCC3)C2)c(C(=O)Nc2ccc(C(=O)N3CCc4cc(C(=O)c5nc6c(F)cccc6[nH]5)sc4-c4ncccc43)cc2)c1` [Example 26] showed an EC50 of under 100 nM. With `Cc1cnc(N2CC3(CCOCC3)C2)c(C(=O)Nc2ccc(C(=O)N3CCc4cc(C(=O)c5nc6ccccc6[nH]5)sc4-c4ccc(F)cc43)cc2)c1` [Example 8] the EC50 was under 100 nM. Compound `Cc1cnc(N2CC3(CCOCC3)C2)c(C(=O)Nc2ccc(C(=O)N3CCc4cc(C(=O)c5nc6cc(F)ccc6[nH]5)sc4-c4ccc(F)cc43)cc2)c1` [Example 5] has an EC50 of 100 to 500 nM. With `Cc1cnc(N2CC3(CCOCC3)C2)c(C(=O)Nc2ccc(C(=O)N3CCc4cc(C(=O)c5nc6c(F)cccc6[nH]5)oc4-c4ccccc43)cc2)c1` [Example 16] the EC50 was under 100 nM. `Cc1cnc(N2CC3(CCOCC3)C2)c(C(=O)Nc2ccc(C(=O)N3CCc4cc(C(=O)c5nc6c([nH]5)CCCC6)oc4-c4ccccc43)cc2)c1` [Example 17] showed an EC50 of under 100 nM. Work on `Cc1ccc(C(=O)Nc2ccc(C(=O)N3CCc4c(sc(C(=O)c5nccn5C)c4F)-c4ccccc43)cc2)c(N2CC3(CCOCC3)C2)n1` [Example 28] yielded an EC50 of under 100 nM. In the case of `Cc1ccc(C(=O)Nc2ccc(C(=O)N3CCc4c(sc(C(=O)c5nc6ccccc6[nH]5)c4F)-c4ccccc43)cc2)c(N2CC3(CCOCC3)C2)n1` [Example 27], the EC50 is reported as over 500 nM. `Cc1cnc(N2CC3(CCOCC3)C2)c(C(=O)Nc2ccc(C(=O)N3CCc4cc(C(=O)c5nc(C)c(C)[nH]5)sc4-c4ccc(F)cc43)cc2)c1` [Example 4] was tested, and the EC50 was under 100 nM. `Cc1cnc(N2CC3(CCOCC3)C2)c(C(=O)Nc2ccc(C(=O)N3CCc4cc(C(=O)c5ncc6ccccn56)sc4-c4ccc(F)cc43)cc2)c1` [Example 29] showed an EC50 of under 100 nM. With `Cc1cnc(N2CC3(CCOCC3)C2)c(C(=O)Nc2ccc(C(=O)N3CCc4cc(C(=O)c5nc6ncccc6[nH]5)sc4-c4ccc(F)cc43)cc2)c1` [Example 3] the EC50 was under 100 nM. Compound `Cc1cnc(N2CC3(CCOCC3)C2)c(C(=O)Nc2ccc(C(=O)N3CCc4cc(C(=O)c5nc6c(C)cccc6[nH]5)sc4-c4ccc(F)cc43)cc2)c1` [Example 6] has an EC50 of under 100 nM. Compound `Cc1cnc(N2CC3(CCOCC3)C2)c(C(=O)Nc2ccc(C(=O)N3CCc4cc(C(=O)c5ncccc5C)sc4-c4ccccc43)cc2)c1` [Example 40] has an EC50 of 100 to 500 nM. With `Cc1cnc(N2CC3(CCOCC3)C2)c(C(=O)Nc2ccc(C(=O)N3CCc4cc(C(=O)c5nc(C6CC6)c[nH]5)sc4-c4ccc(F)cc43)cc2)c1` [Example 10] the EC50 was 100 to 500 nM. With `Cc1cnc(N2CC3(CCOCC3)C2)c(C(=O)Nc2ccc(C(=O)N3CCc4cc(C(=O)c5nc(C)c(C)[nH]5)oc4-c4ccccc43)cc2)c1` [Example 13] the EC50 was under 100 nM. Compound `Cc1cnc(N2CC3(CCOCC3)C2)c(C(=O)Nc2ccc(C(=O)N3CCc4cc(C(=O)c5nnc(C)o5)sc4-c4ccc(F)cc43)cc2)c1` [Example 31] has an EC50 of 100 to 500 nM. In the case of `Cc1ccc(C(=O)Nc2ccc(C(=O)N3CCc4cc(C(=O)c5[nH]nnc5C)sc4-c4ccc(F)cc43)cc2)c(N2CC3(CCOCC3)C2)n1` [Example 37], the EC50 is reported as 100 to 500 nM. For `Cc1cnc(N2CC3(CCOCC3)C2)c(C(=O)Nc2ccc(C(=O)N3CCc4cc(C(=O)c5nccn5C)sc4-c4ncccc43)cc2)c1` [Example 19], the EC50 was under 100 nM. Work on `Cc1cnc(N2CC3(CCOCC3)C2)c(C(=O)Nc2ccc(C(=O)N3CCc4cc(C(=O)c5nc6c(F)cccc6[nH]5)sc4-c4ccc(F)cc43)cc2)c1` [Example 7] yielded an EC50 of under 100 nM. Compound `Cc1cnc(N2CC3(CCOCC3)C2)c(C(=O)Nc2ccc(C(=O)N3CCc4cc(C(=O)c5cc(C(F)(F)F)n[nH]5)sc4-c4ccc(F)cc43)cc2)c1` [Example 34] has an EC50 of 100 to 500 nM. With `Cc1cnc(N2CC3(CCOCC3)C2)c(C(=O)Nc2ccc(C(=O)N3CCc4cc(C(=O)c5ncc(C)[nH]5)oc4-c4ccccc43)cc2)c1` [Example 14] the EC50 was under 100 nM. `Cc1cnc(N2CC3(CCOCC3)C2)c(C(=O)Nc2ccc(C(=O)N3CCc4cc(C(=O)c5ncc(C)[nH]5)sc4-c4ccc(F)cc43)cc2)c1` [Example 9] gave an EC50 of under 100 nM. Compound `Cc1cnc(N2CC3(CCOCC3)C2)c(C(=O)Nc2ccc(C(=O)N3CCc4cc(C(=O)c5cc(C)n[nH]5)sc4-c4ccc(F)cc43)cc2)c1` [Example 35] has an EC50 of under 100 nM. `Cc1cnc(N2CC3(CCOCC3)C2)c(C(=O)Nc2ccc(C(=O)N3CCc4cc(C(=O)c5nc6c(C)cccc6[nH]5)sc4-c4ncccc43)cc2)c1` [Example 20] was tested, and the EC50 was over 500 nM. `Cc1cnc(N2CC3(CCOCC3)C2)c(C(=O)Nc2ccc(C(=O)N3CCc4cc(C(=O)c5nc(C(F)(F)F)c[nH]5)sc4-c4ccc(F)cc43)cc2)c1` [Example 33] was tested, and the EC50 was under 100 nM. For `Cc1cnc(N2CC3(CCOCC3)C2)c(C(=O)Nc2ccc(C(=O)N3CCc4cc(C(=O)c5[nH]nnc5C)sc4-c4ccc(F)cc43)cc2)c1` [Example 36], the EC50 was under 100 nM. `Cc1cnc(N2CC3(CCOCC3)C2)c(C(=O)Nc2ccc(C(=O)N3CCc4cc(C(=O)c5nc6c(C)cccc6[nH]5)oc4-c4ccccc43)cc2)c1` [Example 15] showed an EC50 of under 100 nM. `Cc1cnc(N2CC3(CCOCC3)C2)c(C(=O)Nc2ccc(C(=O)N3CCc4cc(C(=O)c5nc6c([nH]5)CCCC6)sc4-c4ncccc43)cc2)c1` [Example 23] showed an EC50 of under 100 nM. With `Cc1cnc(N2CC3(CCOCC3)C2)c(C(=O)Nc2ccc(C(=O)N3CCc4cc(C(=O)c5nc6ccccc6[nH]5)sc4-c4ncccc43)cc2)c1` [Example 21] the EC50 was under 100 nM. Work on `Cc1cnc(N2CC3(CCOCC3)C2)c(C(=O)Nc2ccc(C(=O)N3CCc4cc(C(=O)c5nc6ccccc6o5)sc4-c4ccc(F)cc43)cc2)c1` [Example 30] yielded an EC50 of under 100 nM. In the case of `Cc1cnc(N2CC3(CCOCC3)C2)c(C(=O)Nc2ccc(C(=O)N3CCc4cc(C(=O)c5nc6ccccc6[nH]5)oc4-c4ccccc43)cc2)c1` [Example 12], the EC50 is reported as under 100 nM. With `Cc1cnc(N2CC3(CCOCC3)C2)c(C(=O)Nc2ccc(C(=O)N3CCc4cc(C(=O)c5nc6ccccc6n5C)sc4-c4ncccc43)cc2)c1` [Example 25] the EC50 was 100 to 500 nM. `Cc1cnc(N2CC3(CCOCC3)C2)c(C(=O)Nc2ccc(C(=O)N3CCc4cc(C(=O)c5ccccc5F)sc4-c4ccccc43)cc2)c1` [Example 39] gave an EC50 of 100 to 500 nM. With `Cc1cnc(N2CC3(CCOCC3)C2)c(C(=O)Nc2ccc(C(=O)N3CCc4cc(C(=O)c5nccn5C)sc4-c4ccc(F)cc43)cc2)c1` [Example 1] the EC50 was under 100 nM. In the case of `Cc1cnc(N2CC3(CCOCC3)C2)c(C(=O)Nc2ccc(C(=O)N3CCc4cc(C(=O)c5nc6ccccc6[nH]5)sc4-c4ccccc43)cc2)c1` [Example 11], the EC50 is reported as under 100 nM. `Cc1cnc(N2CC3(CCOCC3)C2)c(C(=O)Nc2ccc(C(=O)N3CCc4cc(C(=O)c5nc6c([nH]5)CCC6)sc4-c4ncccc43)cc2)c1` [Example 24] gave an EC50 of under 100 nM.

Same assay, conditions: human respiratory syncytial virus, HEp-2
Work on `O=C(Nc1ccccc1F)N[C@H]1N=C(c2ccccc2)c2ccccc2NC1=O` [RSV-604, reference compound] yielded an EC50 of about 2400 nM.
